Publication PMC12134986, “Synthesis, characterization and antidiabetic studies of novel amantadine-derived Schiff base (AHB) and its Zn(II), Co(II), Cr(III) and VO(IV) complexes” (RSC Advances, 2025)

Columns and labels:
[1] = test system: α-amylase; assay: In vitro α-amylase inhibition activity (starch-iodine, 580 nm); type: biochemical
Protocol: In vitro α-amylase inhibition studies were performed following a reported methodology with slight modification.[20] First, to prepare our reaction mixture, 10 μL of enzyme solution (0.1 mg mL^−1) was combined with a 10 mM phosphate buffer at pH 6.9 (6 mM NaCl), and then mixed with the various concentrations of the tested sample. The resultant reaction mixtures placed in a microplate were incubated for 30 minutes at 37 °C. After the incubation period, 40 μL of starch solution (1%) was added; subsequently, this assay plate was incubated at 37 °C for 10 minutes. Finally, the reaction was terminated by adding 20 μL of 1.0 M HCl to the prepared solution, followed by the addition of 75 μL of iodine solution. Quantification was performed spectrophotometrically at 580 nm. […] Inhibition activity (%) was measured using eqn (1).1 [drawing 1] Here, the control sample excluded the α-amylase and the tested sample. The inhibitor concentration used to inhibit α-amylase activity (50%) under assay was determined as IC50 values. The findings were depicted as means ± SD values, obtained from microplate readers.

[2] = test system: α-glucosidase; assay: In vitro α-glucosidase inhibitory activity (pNPG substrate, absorbance at 405 nm); type: biochemical
Protocol: After the pre-incubation, pNPG (substrate, 30 μL, 5 mM) prepared in 0.1 M phosphate buffer (pH 6.8) was poured into the wells of the microplate, which were then incubated at 37 °C for 20 minutes. […] For inhibition studies, various concentrations of test samples were utilized. […] All data were presented as means ± SD values, obtained from a microplate reader for all experiments.

In the case of “(E)-2-((adamantan-2-ylimino)methyl)-6-bromo-4-chlorophenol [AHB]”, the “α-amylase inhibition, result in words” value [1] is reported as “relatively inactive” and the “α-glucosidase inhibition, result in words” value [2] is reported as “relatively inactive”.
